Results reported in patent US8637528B2, “Use of PDE7 inhibitors for the treatment of movement disorders” (Omeros Corporation, priority 2007, dated 2014).

Key:
MPTP-treated mice = test: inked paw stride length in the MPTP mouse model of Parkinson's disease, initial study (Example 5); assay type: in vivo; conditions: for effect on stride length of saline-treated mice, in words: 20 minutes after dosing
Method: Adult male C57BL/6J; retired breeders, aged between 7-9 months (Jackson Laboratory, Bar Harbor, Me., USA), singly housed.
Mice received 2 subcutaneous injections of methylphenyltetrahydropyridine (“MPTP”) at a dose of 15 mg/kg (free base) with a 10-12 hour interval between injections. Control mice (sham lesion groups) were administered saline instead of MPTP.
Seven days after MPTP or saline administration, OM69 was administered to mice. For each dose, a 100× stock of OM69 compound was prepared in 100% DMSO and subsequently diluted 100× into phosphate buffered saline (PBS). Then 100 μL of this 1× solution was administered via intraperitoneal (IP) injection.
Prior to injection with MPTP or saline, animals were pre-trained to walk across a clean sheet of paper into their home cage without stopping. For assessment of stride length, animals had their forepaws placed in black ink and the length of forepaw steps during normal walking (in a straight line only) was measured. The animals were immediately put back into their home cage upon completion of the task. Stride length was determined by measuring the distance between each step on the same side of the body, measuring from the middle toe of the first step to the heel of the second step. An average of at least four clear steps was calculated.
Retired breeder male mice (12-15 per group, ˜48-60 animals total) were treated with either saline or 2×15 mg/kg MPTP (12 saline; […]) to induce a Parkinsonian state (neurochemical loss of dopamine with corresponding behavioral deficits).
On day eight stride length was measured again, and the control value for stride length was derived from the stride length of saline-treated animals. Following this measurement the first treatments with L-dopa (5 mg/kg) or OM69 (0.1 mg/kg) were administered on day eight, as shown in FIG. 8. Stride length was then measured for each animal 20 minutes after dosing. […] Dosing with the treatments shown in FIG. 8 was carried out on successive days, with stride length measured 20 minutes after each dosing. As mentioned above, it was previously determined from pharmacokinetic studies that OM69 is washed out of the mice within 12 hours after dosing, so the stride length test carried out 20 minutes after dosing was believed to be measuring the effect of only the compounds administered on the day of treatment.
On day nine Group 1 animals were treated with L-dopa (1 mg/kg), and Group 2 animals were treated with OM69 (0.01 mg/kg). On day ten the treatment groups were crossed over, and Group 1 animals were treated with OM69 (0.01 mg/kg), and Group 2 animals were treated with L-dopa (1 mg/kg).
As further shown in FIG. 8, for the combination studies, all the mice in Group 1 and Group 2 were combined. On day 11 following MPTP administration, all the animals in Group 1 and Group 2 (n=9) were treated with the combination of L-dopa (1 mg/kg) and OM69 (0.01 mg/kg), with the stride length test carried out 20 minutes after dosing. On day 12 following MPTP administration, all the animals in Group 1 and Group 2 (n=9) were treated with the combination of L-dopa (1 mg/kg) and OM69 (0.03 mg/kg) with the stride length test carried out 20 minutes after dosing. In these combination studies carried out on day 11 and day 12, the average stride length data from two of the nine animals was not scorable because these two animals either ran rather than walking at a normal speed, or they kept starting and stopping rather than walking continuously. Therefore, these two animals were excluded, and only the remaining seven animals (n=7) were scored for the combination studies.
To assess and compare the effects of OM69 and L-dopa at these doses, data from mice with equivalent dosing was pooled. Thus, the average stride length for animals treated with L-dopa (1 mg/kg) was determined using measurements obtained from all nine animals. […]

PDE10A = PDE10A (Mus musculus (Mouse), UniProt Q8CA95); test: PDE selectivity SPA assay, PDE10A; assay type: biochemical; conditions: IC50 against murine PDE10A divided by IC50 against PDE7A
Method: (§1) Phosphodiesterase activity was measured by a scintillation proximity assay (SPA, GE Healthcare: Product Code TRKQ7100) with [^3H]-cAMP as the substrate for PDEs 3A, 4A, 8A, or with [^3H]-cGMP as the substrate for PDEs 1B, 2A, 5A, 9A, 10A and 11A. Purified human PDE1B, PDE2A, PDE3A, PDE4A, PDE5A, PDE8A, PDE9A and PDE11A4 were obtained from BPS Bioscience, San Diego, Calif. Purified murine PDE10A was also obtained from BPS Biosciences. […] Therefore, the results obtained using murine PDE10A are believed to be representative of human PDE10.
(§2) The purified PDE enzymes were each diluted and stored in a solution containing 25 mM Tris-Cl (pH 8.0), 100 mM NaCl, 0.05% Tween 20, 50% glycerol, and 3 mM DTT. PDE assays were carried out in the following assay cocktail (final concentrations): 50 mM Tris-Cl (pH 8.0), 8.3 mM MgCl2, 1.7 mM EGTA, 0.5 mg/ml BSA, 2.5% DMSO and between 0.2 ng and 6 ng of the PDE protein (depending on the enzyme activity) in a final volume of 0.1 mL.
(§3) Reactions were initiated by addition of enzyme, incubated for 20 minutes at 30° C. and then terminated by the addition of 50 μl of SPA beads containing Zn^2+.
(§4) The mixture was shaken, and allowed to settle for 3 hours. Then the production of [^3H]-AMP or [^3H]-GMP from the substrate was quantitated by scintillation counting in a Wallac® plate counter. […]

PDE4A = PDE4A (Homo sapiens (Human), UniProt P27815); test: PDE selectivity SPA assay, PDE4A; assay type: biochemical; conditions: IC50 against PDE4A divided by IC50 against PDE7A
Method: as §1, §2, §3, §4

PDE2A = PDE2A (Homo sapiens (Human), UniProt O00408); test: PDE selectivity SPA assay, PDE2A; assay type: biochemical; conditions: IC50 against PDE2A divided by IC50 against PDE7A
Method: as §1, §2, §3, §4

PDE11A = PDE11A (Homo sapiens (Human), UniProt Q9HCR9); test: PDE selectivity SPA assay, PDE11A; assay type: biochemical; conditions: IC50 against PDE11A divided by IC50 against PDE7A
PDE9A = PDE9A (Homo sapiens (Human), UniProt O76083); test: PDE selectivity SPA assay, PDE9A; assay type: biochemical; conditions: IC50 against PDE9A divided by IC50 against PDE7A
PDE7B = PDE7B (Homo sapiens (Human), UniProt Q9NP56); test: PDE7 phosphodiesterase scintillation proximity assay (SPA), PDE7B; assay type: biochemical; conditions: for Fold Selectivity for PDE7A versus PDE7B: IC50 against PDE7B divided by IC50 against PDE7A; for 7A/7B Ratio: ratio of the PDE7B and PDE7A IC50 values; for selectivity for inhibition of the PDE7B enzyme as compared to the other PDEs: versus PDE1B, 2A, 3A, 4A, 5A, 8A, 9A, 10A, 11A
PDE7B, sequence (Q9NP56 107-450 limits assumed): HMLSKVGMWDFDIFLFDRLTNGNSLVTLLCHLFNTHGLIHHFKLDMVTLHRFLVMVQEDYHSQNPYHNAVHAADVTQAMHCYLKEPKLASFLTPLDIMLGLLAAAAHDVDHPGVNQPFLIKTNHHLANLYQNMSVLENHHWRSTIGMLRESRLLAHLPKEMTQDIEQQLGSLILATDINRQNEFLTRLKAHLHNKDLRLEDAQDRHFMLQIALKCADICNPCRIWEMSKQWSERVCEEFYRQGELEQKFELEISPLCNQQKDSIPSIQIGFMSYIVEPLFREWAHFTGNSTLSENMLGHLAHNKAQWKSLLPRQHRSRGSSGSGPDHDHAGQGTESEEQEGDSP

PDE2A, sequence (O00408 whole entry): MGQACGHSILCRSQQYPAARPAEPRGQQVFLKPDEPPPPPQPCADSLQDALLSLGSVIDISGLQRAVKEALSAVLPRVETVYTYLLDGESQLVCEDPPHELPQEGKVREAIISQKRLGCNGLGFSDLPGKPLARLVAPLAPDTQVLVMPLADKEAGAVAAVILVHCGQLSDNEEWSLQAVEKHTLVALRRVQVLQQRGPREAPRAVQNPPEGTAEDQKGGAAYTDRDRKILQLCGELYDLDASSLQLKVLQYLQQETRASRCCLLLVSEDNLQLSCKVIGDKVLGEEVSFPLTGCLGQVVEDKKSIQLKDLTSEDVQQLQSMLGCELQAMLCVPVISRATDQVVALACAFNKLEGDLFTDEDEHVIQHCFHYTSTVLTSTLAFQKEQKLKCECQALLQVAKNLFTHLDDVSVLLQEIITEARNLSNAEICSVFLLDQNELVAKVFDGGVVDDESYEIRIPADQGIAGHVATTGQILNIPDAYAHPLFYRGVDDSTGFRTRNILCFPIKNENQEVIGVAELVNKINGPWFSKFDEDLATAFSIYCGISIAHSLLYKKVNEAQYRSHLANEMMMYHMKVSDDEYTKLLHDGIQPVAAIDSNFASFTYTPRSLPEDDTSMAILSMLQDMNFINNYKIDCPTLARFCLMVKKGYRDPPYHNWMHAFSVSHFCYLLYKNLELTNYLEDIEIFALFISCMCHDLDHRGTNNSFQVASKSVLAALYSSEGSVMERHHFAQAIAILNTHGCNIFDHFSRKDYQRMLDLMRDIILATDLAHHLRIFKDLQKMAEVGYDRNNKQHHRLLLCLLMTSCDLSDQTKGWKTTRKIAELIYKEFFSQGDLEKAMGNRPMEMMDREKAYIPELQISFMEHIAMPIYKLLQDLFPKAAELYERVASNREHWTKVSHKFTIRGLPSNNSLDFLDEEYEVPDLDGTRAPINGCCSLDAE
PDE4A, sequence (P27815 whole entry): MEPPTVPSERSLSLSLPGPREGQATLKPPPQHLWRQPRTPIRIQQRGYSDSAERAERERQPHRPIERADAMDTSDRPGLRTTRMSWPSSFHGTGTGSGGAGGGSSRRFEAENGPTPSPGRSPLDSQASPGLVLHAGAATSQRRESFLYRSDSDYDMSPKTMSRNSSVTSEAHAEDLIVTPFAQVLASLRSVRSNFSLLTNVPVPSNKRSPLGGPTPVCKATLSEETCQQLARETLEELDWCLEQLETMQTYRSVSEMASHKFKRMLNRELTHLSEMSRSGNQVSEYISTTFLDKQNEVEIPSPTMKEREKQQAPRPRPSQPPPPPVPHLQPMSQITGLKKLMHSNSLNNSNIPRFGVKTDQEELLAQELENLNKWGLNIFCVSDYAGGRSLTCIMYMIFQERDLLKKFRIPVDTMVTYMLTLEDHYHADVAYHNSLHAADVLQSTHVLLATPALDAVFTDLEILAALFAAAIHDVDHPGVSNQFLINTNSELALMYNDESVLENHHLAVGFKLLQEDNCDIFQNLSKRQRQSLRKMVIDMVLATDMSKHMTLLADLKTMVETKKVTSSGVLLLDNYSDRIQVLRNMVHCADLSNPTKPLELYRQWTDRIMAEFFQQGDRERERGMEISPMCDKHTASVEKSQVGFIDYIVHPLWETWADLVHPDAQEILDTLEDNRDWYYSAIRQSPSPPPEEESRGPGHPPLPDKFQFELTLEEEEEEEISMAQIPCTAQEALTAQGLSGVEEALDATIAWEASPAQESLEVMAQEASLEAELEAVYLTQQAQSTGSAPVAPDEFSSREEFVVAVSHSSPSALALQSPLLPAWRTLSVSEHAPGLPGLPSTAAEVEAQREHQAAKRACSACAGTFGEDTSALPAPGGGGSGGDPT
PDE11A, sequence (Q9HCR9 whole entry): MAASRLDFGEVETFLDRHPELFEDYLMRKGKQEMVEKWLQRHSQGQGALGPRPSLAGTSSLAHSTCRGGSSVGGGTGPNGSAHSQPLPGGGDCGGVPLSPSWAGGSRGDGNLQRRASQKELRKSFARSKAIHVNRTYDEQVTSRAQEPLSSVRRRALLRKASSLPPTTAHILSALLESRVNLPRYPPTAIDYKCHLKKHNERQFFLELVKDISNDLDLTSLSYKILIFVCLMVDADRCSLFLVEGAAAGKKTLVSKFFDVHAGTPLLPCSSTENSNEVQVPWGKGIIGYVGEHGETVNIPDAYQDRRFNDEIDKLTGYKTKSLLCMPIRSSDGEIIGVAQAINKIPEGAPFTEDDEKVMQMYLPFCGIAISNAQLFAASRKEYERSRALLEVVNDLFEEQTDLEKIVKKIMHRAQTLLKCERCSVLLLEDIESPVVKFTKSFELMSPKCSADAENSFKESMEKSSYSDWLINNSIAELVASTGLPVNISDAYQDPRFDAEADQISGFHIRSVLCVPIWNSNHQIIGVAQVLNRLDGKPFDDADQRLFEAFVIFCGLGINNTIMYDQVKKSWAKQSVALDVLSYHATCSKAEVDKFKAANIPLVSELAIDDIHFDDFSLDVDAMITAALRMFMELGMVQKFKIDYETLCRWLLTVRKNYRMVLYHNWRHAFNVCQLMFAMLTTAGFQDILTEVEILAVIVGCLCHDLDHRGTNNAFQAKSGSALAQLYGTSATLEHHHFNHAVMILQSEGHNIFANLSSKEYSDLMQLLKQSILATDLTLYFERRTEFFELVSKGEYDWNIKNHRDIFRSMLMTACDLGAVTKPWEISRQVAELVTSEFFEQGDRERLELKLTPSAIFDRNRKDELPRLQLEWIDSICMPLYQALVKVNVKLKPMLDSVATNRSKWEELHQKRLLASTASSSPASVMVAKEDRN
PDE9A, sequence (O76083 whole entry): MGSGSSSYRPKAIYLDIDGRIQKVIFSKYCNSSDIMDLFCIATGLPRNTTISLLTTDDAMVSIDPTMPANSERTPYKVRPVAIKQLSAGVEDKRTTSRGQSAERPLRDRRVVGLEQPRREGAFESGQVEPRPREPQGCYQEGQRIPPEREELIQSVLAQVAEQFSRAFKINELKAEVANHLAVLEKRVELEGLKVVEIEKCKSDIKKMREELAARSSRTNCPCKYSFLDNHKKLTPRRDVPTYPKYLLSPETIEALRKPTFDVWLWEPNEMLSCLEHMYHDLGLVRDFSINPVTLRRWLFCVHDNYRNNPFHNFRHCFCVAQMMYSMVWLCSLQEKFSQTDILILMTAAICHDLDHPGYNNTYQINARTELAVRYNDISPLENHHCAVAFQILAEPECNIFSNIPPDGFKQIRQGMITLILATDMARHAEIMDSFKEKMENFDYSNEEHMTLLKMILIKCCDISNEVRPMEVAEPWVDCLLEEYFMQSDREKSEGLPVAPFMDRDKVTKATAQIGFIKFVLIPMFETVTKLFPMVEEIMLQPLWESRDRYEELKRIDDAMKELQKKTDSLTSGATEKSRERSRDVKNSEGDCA
PDE10A, sequence (Q8CA95 whole entry): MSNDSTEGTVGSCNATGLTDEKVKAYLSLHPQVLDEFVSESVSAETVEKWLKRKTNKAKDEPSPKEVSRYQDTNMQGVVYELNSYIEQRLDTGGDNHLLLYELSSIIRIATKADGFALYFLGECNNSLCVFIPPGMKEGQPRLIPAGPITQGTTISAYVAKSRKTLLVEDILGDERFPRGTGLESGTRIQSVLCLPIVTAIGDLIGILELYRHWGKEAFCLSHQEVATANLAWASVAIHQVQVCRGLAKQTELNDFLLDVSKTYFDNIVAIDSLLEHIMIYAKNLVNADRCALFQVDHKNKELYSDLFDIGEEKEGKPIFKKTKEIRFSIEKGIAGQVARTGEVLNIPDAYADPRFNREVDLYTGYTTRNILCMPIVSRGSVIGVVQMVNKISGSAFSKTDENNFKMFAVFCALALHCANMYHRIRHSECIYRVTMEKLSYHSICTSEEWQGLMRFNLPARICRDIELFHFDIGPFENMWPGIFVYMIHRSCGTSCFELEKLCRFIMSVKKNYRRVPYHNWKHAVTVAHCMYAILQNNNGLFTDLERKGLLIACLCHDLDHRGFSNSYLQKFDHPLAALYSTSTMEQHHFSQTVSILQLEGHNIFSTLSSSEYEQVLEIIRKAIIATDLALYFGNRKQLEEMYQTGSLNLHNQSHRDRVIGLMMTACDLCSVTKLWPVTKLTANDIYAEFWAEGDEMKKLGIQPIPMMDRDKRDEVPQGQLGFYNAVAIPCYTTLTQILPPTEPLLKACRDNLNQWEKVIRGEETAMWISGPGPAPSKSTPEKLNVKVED

Compound | effect on stride length, in words (MPTP-treated mice; MPTP-treated mice, L-dopa 1 mg/kg) | effect on stride length, in words (MPTP-treated mice; MPTP-treated mice, L-dopa 5 mg/kg) | dose dependence of the effect on stride length, in words (MPTP-treated mice; MPTP-treated mice, L-dopa 1 and 5 mg/kg) | effect on stride length of saline-treated mice, in words (MPTP-treated mice; L-dopa 5 mg/kg) | Fold Selectivity for PDE7A versus PDE10A (PDE10A) [fold] | Fold Selectivity for PDE7A versus PDE4A (PDE4A) [fold] | Fold Selectivity for PDE7A versus PDE2A (PDE2A) | Fold Selectivity for PDE7A versus PDE11A (PDE11A) [fold] | Fold Selectivity for PDE7A versus PDE9A (PDE9A) [fold] | IC50 (PDE7B) [nM] | potency of PDE7B inhibition, in words (PDE7B) | Fold Selectivity for PDE7A versus PDE7B (PDE7B) [fold] | 7A/7B Ratio (PDE7B) | selectivity for inhibition of the PDE7B enzyme as compared to the other PDEs (PDE7B) | effect on stride length, in words (MPTP-treated mice; MPTP-treated mice, OM69 0.01 mg/kg) | effect on stride length, in words (MPTP-treated mice; MPTP-treated mice, OM69 0.1 mg/kg IP) | L-dopa dose with the same effect on stride length, relative to the OM69 dose (MPTP-treated mice; OM69 0.1 mg/kg IP versus L-dopa 5 mg/kg) [fold] | effect on stride length of saline-treated mice, in words (MPTP-treated mice; OM69 0.1 mg/kg)
N[C@@H](Cc1ccc(O)c(O)c1)C(=O)O [L-dopa, levodopa, reference compound] | only a small effect | fully restore the stride length to that seen without MPTP treatment | increases their stride length in a dose-dependent manner | Neither L-dopa (5 mg/kg) nor OM69 (0.1 mg/kg) altered the stride length of saline-treated mice |  |  |  |  |  |  |  |  |  |  |  |  |  | 
O=C1Nc2c(Cl)ccc(OCCO)c2C2(CCCCC2)N1 [OM955] |  |  |  |  | 379 | 113 | 209 fold | >192 | >192 | 106 | moderate potency | 2.0 | 2.05 | greater than 50 fold |  |  |  | 
COc1cc(N)ccc1-c1cc2c(c(=O)[nH]1)C(C1CCCCC1)N=[N+]2C (stereo not shown) [OM69] |  |  |  |  | 1050 | 6500 | 11,100 fold | 7070 | >7700 | 4.8 | high potency | 3.7 | 3.69 | 250 fold | only a small effect | fully restore the stride length to that seen without MPTP treatment | 50 | Neither L-dopa (5 mg/kg) nor OM69 (0.1 mg/kg) altered the stride length of saline-treated mice
